Assays:
skin fibrosis = assay: Morphology of skin biopsy specimens, H&E staining of paraffin embedded sections; assay type: in vivo, human
Procedure: Patients seen at the Northwestern Scleroderma Program who met American College of Rheumatology criteria for SSc with a mRSS≧16 and would be receiving mycophenolate mofetil for the indication of progressive skin tightening were assessed. All patients provided written informed consent in accordance with the Institutional Review Board Guidelines of Northwestern University. Patients underwent a standardized physical exam, including mRSS performed by one clinician at study entry (prior to treatment) and at 6 months and 12 months post MMF initiation. […] from clinically involved skin (forearm) and clinically uninvolved skin (back) from the non-dominant side of the body. Two biopsies (one from forearm and back) were placed in RNAlater® (Applied Biosystems, Ambion®, Carlsbad, Calif., U.S.A.) and used for DNA microarray analysis and the other biopsy was placed in 10% neutral buffered formalin and used for histological analyses.
To confirm the physical exam finding of softened skin in MMF-responders, the morphology of skin biopsy specimens was examined using routine H&E staining of paraffin embedded sections.

[1] = SSc patients; cited from earlier work

Compound: COc1c(C)c2c(c(O)c1C/C=C(\C)CCC(=O)OCCN1CCOCC1)C(=O)OC2 [MMF, mycophenolate mofetil]
- extent of skin fibrosis, pre- vs post-treatment biopsies (skin fibrosis; MMF responders): clear differences in the extent of fibrosis between pre- and post-treatment biopsies in responders
- skin fibrosis and dermal appendages (skin fibrosis; MMF-nonresponder): greater degree in skin fibrosis and a further loss of the normal dermal appendages

Compound: rituximab
- clinical response [1]: no clinical benefit

— US20140066324A1, “GENE EXPRESSION SIGNATURE IN SKIN PREDICTS RESPONSE TO MYCOPHENOLATE MOFETIL” (NORTHWESTERN UNIVERSITY, priority 2011, published 2014)
